Data published in patent US4287201A, “Anovulatory method and chicken feed compositions” (Merck & Co., Inc., priority 1980, dated 1981).
Like-named read-outs stand apart in the source and are kept apart here.

Experiments:
laying hens [1] = assay: Anovulatory Activity (EPI): egg production of prime laying hens fed medicated diet; format: in vivo, laying hens (chicken); conditions: Gallus gallus, 192 h, read-out: EPI: Egg Production Index, % of control egg production for days 5 through 8
Method: Anovulatory Activity--(EPI)
Prime laying hens (7-12 months), whose egg production has been documented during the preceding 2 weeks, are fed diet containing medication at 100 ppm for 8 days. Egg production is recorded for days 5 through 8 while the birds are on test, and the Egg Production Index (EPI) is calculated as the % of control egg production for days 5 through 8 inclusive after start of oral medication at 100 ppm.
**Egg Production Index, % of control egg production for days 5 through 8
inclusive after start of oral medication at 100 ppm

laying hens [2] = assay: Antigonadal Activity (ED20): ovarian weight of prime laying hens fed medicated diet for one week; format: in vivo, laying hens (chicken); conditions: medicated diet for seven days, based on at least 8 hens at 2 dose levels
Method: Antigonadal Activity--(ED20)
Prime laying hens (7-12 months), whose egg production has been documented during the preceding 2 weeks, are fed medicated diet for one week at various dose levels. At the conclusion of the one week test, the hens are sacrificed and their reproductive system is excised, examined and weighed. The seven day medication level producing a 20 g ovarian weight, based on at least 8 hens at 2 dose levels is calculated and recorded as ED20.
*Seven day medication level producing a 20 g ovarian weight in laying hen
(based on at least 8 hens at 2 dose levels)

Row | SMILES | response vs control in vivo at 100 ppm, 100 µg/mL (laying hens [1]; po) | ED20: seven day medication level producing a 20 g ovarian weight in laying hen (laying hens [2]) | response vs control in vivo at 100 ppm, 100 µg/mL (laying hens [1]; hens, oral medication in diet at 100 ppm for 8 days, days 5 through 8 inclusive)
1 | Cc1cccc(C)c1N=C1NCCN1 [compound 1, 2-(2,6-dimethylphenylimino)imidazolidine] | 18% | 38 ppm | 
2 | Cc1c(Cl)cccc1N=C1NCCN1 [compound 2, 2-(3-chloro-2-methylphenylimino)imidazolidine] | 26% | 38 ppm | 
3 | Cc1cccc(Cl)c1N=C1NCCN1 [compound 3, 2-(6-chloro-2-methylphenylimino)imidazolidine] | 16% | 40 ppm | 
4 | Cc1ccc(N=C2NCCN2)c(C)c1 [compound 4] | 24% | 50 ppm | 
5 | Cc1cc(Cl)ccc1N=C1NCCN1 [compound 5, 2-(4-chloro-2-methylphenylimino)imidazolidine] | 24% | 53 ppm | 
6 | Cc1cc(C)c(N=C2NCCN2)c(C)c1 [compound 6, 2-(2,4,6-Trimethylphenylimino)imidazolidine] | 31% | 54 ppm | 
7 | Cc1cc(Br)ccc1N=C1NCCN1 [compound 7] | 24% | 56 ppm | 
8 | Cc1ccc(F)cc1N=C1NCCN1 [compound 8, 2-(5-fluoro-2-methylphenylimino)imidazolidine] | 24% | 67 ppm | 
9 | Cc1ccccc1N=C1NCCN1 [compound 9] | 8% | 69 ppm | 
10 | CCc1ccccc1N=C1NCCN1 [compound 10] | 31% | 83 ppm | 
11 | CCc1cccc(CC)c1N=C1NCCN1 [compound 11] | 31% | 151 ppm | 
12 | Cc1cccc(N=C2NCCN2)c1C [compound 12] | 86% | 181 ppm | 
13 | Clc1ccccc1N=C1NCCN1 [compound 13, 2-(2-chlorophenylimino)imidazolidine] | 31% | 217 ppm | 
14 | Cc1ccc(C)c(N=C2NCCN2)c1 [compound 14] | 70% | 250 ppm | 
15 | Clc1cccc(Cl)c1N=C1NCCN1 [compound 15] |  | 400 ppm | 70%
